How the values were obtained:
Assay in all cases: Agar well diffusion assay, antagonism of molds
Assay type in all cases: cell-based
Conditions in all cases: PDA plates, 25° C. 72 hours
[1] = system: Penicillium chrysogenum Thom (ATCC MYA-4644)
Method: (§1) The agar well diffusion assay was performed to evaluate the antagonistic activity of B. amyloliquefaciens 298 against the growth of pathogenic bacteria including Escherichia coli ATCC 22922, Pseudomonas aeruginosa, B. cereus ATCC 27348, Staphylococcus aureus ATCC 11335, Salmonella Typhimurium ATCC 14028 and Listeria innocua ATCC 3586. […] Brain Heart Infusion (BHI) Agar was used for the antagonism against pathogenic microorganisms while the Potato Dextrose Agar (PDA) was used for evaluation against molds. Reference pathogens were prepared using BHI broth at 37° C. for 18 hours while B. amyloliquefaciens 298 was grown using LB broth at 37° C. for 18 hours. Molds were prepared using PDA at 25° C. with 85% HR for 7 days. Mold spores, pathogens and B. amyloliquefaciens 298 were harvested and resuspended in PBS. Pathogens and B. amyloliquefaciens 298 were adjusted to an optical density of 0.2 and 100 uL of pathogen suspended in PBS was spread on BHI agar plates. The same amount of mold spore suspension was inoculated on PDA. Wells were made in all the plates and 20 μL of B. amyloliquefaciens 298 suspensions were inoculated in the wells while the BHI plates were incubated at 37° C. for 24 hours and PDA plates at 25° C. for 72 hours.

[2] = system: Cladosporium sphaerospermum Penzig (ATCC MYA-4645)
Method: as §1

[3] = system: Alternaria alternata (Fries) Keissler (ATCC MYA-4642)
Method: as §1

Which “Inhibition zone, Penicillium chrysogenum Thom (ATCC MYA-4644)” value [1] does the source give for `OO` [Hydrogen peroxide 10%, hydrogen peroxide] here?
Its value is 10 mm.

And the “Inhibition zone, Cladosporium sphaerospermum Penzig (ATCC MYA-4645)” value [2]?
The value was 12 mm.

What about the “Inhibition zone, Alternaria alternata (Fries) Keissler (ATCC MYA-4642)” value [3] of the same compound?
Its value is 8 mm.
